Values quoted from earlier work as cited in US6586576B2, “Preparation method of azithromycin hydrates” (Teva Pharmaceutical Industries LTD, priority 2000, dated 2003).
Read-outs that look alike come from different tables or passages of the source.

Tests used:
[1] = crystal/hydrate form, per EP 298 650 and CN 1,093,370

In the case of CC[C@H]1OC(=O)[C@H](C)[C@@H](O[C@H]2C[C@@](C)(OC)[C@@H](O)[C@H](C)O2)[C@H](C)[C@@H](O[C@@H]2O[C@H](C)C[C@H](N(C)C)[C@H]2O)[C@](C)(O)C[C@@H](C)CN(C)[C@H](C)[C@@H](O)[C@]1(C)O [azithromycin dihydrate], the hygroscopic nature ([1]; dihydrate) is listed as “less hygroscopic than the previously known azithromycin monohydrate”.
For CC[C@H]1OC(=O)[C@H](C)[C@@H](O[C@H]2C[C@@](C)(OC)[C@@H](O)[C@H](C)O2)[C@H](C)[C@@H](O[C@@H]2O[C@H](C)C[C@H](N(C)C)[C@H]2O)[C@](C)(O)C[C@@H](C)CN(C)[C@H](C)[C@@H](O)[C@]1(C)O [azithromycin monohydrate], the hygroscopic nature ([1]; monohydrate) is given as “hygroscopic”.
In the case of CC[C@H]1OC(=O)C(C)C(OC2CC(C)(OC)C(O)C(C)O2)C(C)C(OC2OC(C)CC(N(C)C)C2O)C(C)(O)CC(C)CN(C)C(C)C(O)C1(C)O (stereo partly drawn) [azithromycin, 9-deoxo-9a-aza-9a-methyl-9a-homoerythromycin A], the “stability under acidic conditions” value is listed as “not stable”.
